This note sets out measurements from a melting point compilation (Tetko et al.; mined from patent text by program, amines drawn as free bases though some values may be those of a salt).

What is called melting point is the temperature, or range, at which the solid turns liquid.

`CC(C)C(O)(Cn1cncn1)c1ccc(Oc2ccc(Cl)cc2)cc1C(F)(F)F` (stereo not drawn) had a melting point of 114 °C.
The same measure for `COc1cc(OC)c2c(=O)oc(=O)[nH]c2c1`: 287 to 293 °C; for `COC(=O)c1cc(-c2ccc3c(=O)[nH]c(=O)[nH]c3n2)ccc1OC`: 301 to 303 °C.
Compound `COc1ccc(COCC(O)Cn2ccnc2)cc1` (stereo not drawn) yielded a melting point of 96 to 98 °C.
Next, `N=C(N)Nc1nc(CSCCNC(N)=N[N+](=O)[O-])ns1`: 184 to 186 °C; `CCCCc1c(OC(=O)C(C)(C)C)n(-c2ccc(OC(C)=O)cc2)n(-c2ccccc2)c1=O`: 151 to 158 °C; `COc1ccccc1C(CCNC(C)(C)C)c1cc(Cl)ccc1OC` (stereo not drawn): greater than 260 °C.
Next, `COc1cc2c(cc1S(=O)(=O)c1ccccc1)[C@@H](N1CCCCC1=O)[C@H](O)C(C)(C)O2` (relative stereo): 157 to 158 °C.
The same measure for `CC1SC(=O)NN=C1c1ccc(N2CCC(N)CC2)c([N+](=O)[O-])c1` (stereo not drawn): 154 to 157 °C.
With `CC(C)OC(=O)Cc1ccc2c(c1)C(=O)c1ccccc1CO2`, the melting point lay in the range of 67 to 68.5 °C.
The same measure for `Cc1cc(N(C)C)ccc1-c1c(O)c(=O)c1=O`: greater than 114 °C; for `CCc1ccc(C2C(C(=O)c3ccc(C(C)C)cc3)=C(O)C(=O)N2c2ccc(C)nn2)cc1` (stereo not drawn): 282 to 284 °C.
Next, `COc1cc(OC)c(/C=C/S(=O)(=O)Cc2ccc(OC)c(N)c2)c(OC)c1`: 148 to 150 °C.
In turn, `Cc1cc(C)nc(NC(=S)NS(=O)(=O)c2ccccc2-c2ccccc2)n1` had a melting point of 203 to 204 °C.
As to `COC(=O)c1ccc(S(=O)(=O)n2c(=O)[nH]c3cc(Cl)ccc3c2=O)cc1`, the melting point is greater than 230 °C.
The same measure for `CCCCOC(=O)c1ccccc1C(=O)Nc1nc2ccccc2[nH]1`: 187 °C; for `CN(SN(C)C(=O)F)C(=O)F`: 40 to 41 °C.
`COC(=O)c1cc(Br)c(OC)c2c1OCO2` registered a melting point of 165 to 166 °C.
Turning to `CS(=O)c1ccc(-c2cn3c(c2-c2ccccc2)CCC3)cc1` (stereo not drawn), the melting point lay within 67 to 68 °C.
Next, `COc1ccc(S(=O)(=O)N2C(=O)C(c3ccccc3OC)(N3Cc4ccccc4C[C@H]3C(=O)N(C)C)c3cc(Cl)c(Cl)cc32)c(OC)c1` (stereo partly drawn): 155 °C; `COc1cccc2c(=O)c(OCC(=O)O)coc12`: 215 to 217 °C; `COc1cc2c(cc1O)C(Cc1cc(Cl)ccc1[N+](=O)[O-])N(C)CC2` (stereo not drawn): 123 to 126 °C.
Next, `CCC(=O)c1cc(C)nc2c1c(C)nn2-c1c(C)cc(C)cc1C`: 117 to 118 °C; `O=C(NCC(=O)N1c2ccccc2N(Cc2ccccc2)C(=O)[C@H]2CCC[C@H]21)c1cccs1` (relative stereo): 223 °C.
Consider `CC(=O)Nc1cccc2c1CN(c1ccc3ccn(C)c3c1)C2=O`, for which the melting point was 180 to 184 °C.
For the compound `COc1ccc(-c2ccc(-c3ccc(F)cc3)nc2-c2ccc(OC)cc2)cc1`, the melting point was 118 to 120 °C.
The same measure for `CC1(C)CC2(CC(C)(C)N1O)OC1(CCCCCCCCCCC1)NC2=O`: 236 to 238 °C; for `Cc1cc(C2=NN=C(C(=O)O)Cc3cc4c(cc32)OCO4)ccc1[N+](=O)[O-]`: 185 to 186 °C.
`N#Cc1c[nH]c(-c2ccccc2)c1C#N` had a melting point of 197 to 200 °C.
In turn, `O=C(Oc1ccc(Cl)cc1)C1CCCc2ccc([N+](=O)[O-])cc21` (stereo not drawn) returned a melting point of 108 to 109 °C.
In turn, `CC(C)NCCNc1nc(Nc2cccc(NS(C)(=O)=O)c2)nc2[nH]ccc12` had a melting point of 127 to 131 °C.
Next, `Cc1ccc(Nc2ncc(C=Cc3cccnc3)c3ccccc23)cc1Br`: 91 °C.
The same measure for `COc1cc(C(=O)NCC2c3ccccc3CCN2CCO)cc(OC)c1OC` (stereo not drawn): 138 to 140 °C.
Next, `CC(=O)NCCn1ccc(=O)c(OCc2ccccc2)c1C(O)c1ccccc1` (stereo not drawn): 180 to 182 °C; `CCS(=O)(=O)c1ccc2c(c1)nc(CC(C)(C)C)n2CCOC(F)(F)F`: 133 °C.
As for `O=C(NCc1ccc2c(c1)OCO2)c1ccc2n1Cc1ccccc1N(C(=O)CSc1ccc(Br)cc1)C2`, the melting point is 154 to 155 °C.
Consider `CCC(=S)N(c1c(C)cccc1C)C(C)C(C)=S` (stereo not drawn), for which the melting point fell in the range of 88 to 92 °C.
The same measure for `CS(=O)(=O)c1nc(C(N)=O)n[nH]1`: 172 to 180 °C.
Next, `CC(C)c1cccc(C(C)C)c1NC(=O)C(C)C1c2ccccc2Oc2ccccc21` (stereo not drawn): 210 to 211 °C; `Cc1nc(-n2ccc(OCc3ccc(C(F)(F)F)o3)cc2=O)sc1C(=O)O`: 261 to 263 °C.
The compound `CCCCc1ccccc1NC(C)=O` gave a melting point of 96.5 to 99.5 °C.
For the compound `CC1CNc2c3c(nc4cccc(c24)O1)CCCC3` (stereo not drawn), the melting point is 169 to 170 °C.
As for `O=C1OC(c2ccc(Cl)cc2)C(Cn2cncn2)(c2ccc(Cl)cc2Cl)O1` (stereo not drawn), the melting point was in the range of 178 to 179 °C.
For `Cc1cnc(C)c(Cl)c1N`, the melting point was in the range of 82 to 83 °C.
Next, `COc1ccc(-c2cn(-c3ccc(C(F)(F)F)cc3F)nn2)cc1`: 152 to 154 °C; `O=C1[C@H]2CCC[C@H]2N(C(=O)CNS(=O)(=O)c2ccccc2)c2ccccc2N1Cc1ccccc1` (relative stereo): 185 to 187 °C; `c1ccc(C2CC(Cc3ccncc3)(Cc3ccncc3)c3ccccc32)cc1` (stereo not drawn): 210 to 225 °C.
Regarding `Cc1nnsc1C(=O)Nc1ccc(-n2nc(C(F)(F)F)cc2C2CC2)nc1`, the melting point was in the range of 170 to 172 °C.
Next, `Cc1cc(N)nc(CCc2nc3cc(-c4ccc(S(=O)(=O)N5CCN(C)CC5)cc4)cnc3[nH]2)c1`: 135 °C; `Cn1ccc2cc(NC(=O)c3cc4cccnc4n3Cc3cccc(F)c3)ccc21`: 191 to 192 °C; `N=C(NCC1(c2ccc(Cl)cc2)CC1)NN=Cc1c(Cl)cccc1Cl`: 126 to 128 °C.
`CC#CCOc1ccc(S(=O)(=O)C(C(=O)NO)C2CCN(C(=O)OC(C)(C)C)CC2)cc1` (stereo not drawn) yielded a melting point of 80 °C.
The same measure for `Cc1cc([N+](=O)[O-])ccc1Oc1ccc(C(C)(C)c2cccc(C(C)(C)c3ccc(Oc4ccc([N+](=O)[O-])cc4C)cc3)c2)cc1`: 116 to 118 °C; for `O=C(Nc1ccccn1)c1cn(-c2ccccc2)c2ccccc2c1=O`: 238 to 240 °C.
The compound `N#Cc1cc(C(=O)NNC(=O)c2occc2-c2ccccc2O)ccc1O` came in with a melting point of 135 to 140 °C.
The same measure for `CCCCc1nc(C(C)(C)O)c(C(=O)OCOC(=O)C(C)(C)C)n1Cc1ccc(-c2ccccc2C(=O)O)cc1`: 139 to 144 °C; for `ON=C1CCC(c2ccccc2)CC1` (stereo not drawn): 110 to 112 °C.
Next, `OCc1ccccc1-c1cc(-c2ccccc2)on1`: 68 to 70 °C.
Take `O=C(O)c1cn(C2CC2)c2c(F)c(F)c(F)c(NC(=O)C(F)(F)F)c2c1=O`: the melting point is 188 °C.
Next, `CC(C)c1nccn1-c1nc(Cl)nc2nc[nH]c12`: 268 °C; `COc1cc(NC(C)=O)c(OC)cc1C#N`: 165 to 168 °C.
`Nc1nc2cccnc2c2c1nc(O)n2CC1CCOCC1` yielded a melting point of 250 to 260 °C.
The compound `CCCCCCCCCCCCCCOc1ccc(CC(=O)Nc2cccc(CBr)c2)cc1` showed a melting point of 116 to 118 °C.
The same measure for `COc1ccc(-c2nc(C(=O)Nc3nccs3)c(-c3ccc(C)cc3)[nH]2)c2ccccc12`: greater than 250 °C; for `Cn1c2c(c3cc(F)ccc31)C(=O)NCC2`: 200 to 202 °C; for `COCCOc1ccc(CCCOC(=O)NS(=O)(=O)NCCOC(C)C)c(Oc2ncc(C(F)(F)F)cc2Cl)c1`: 114 °C.
`CC(C)(O)Cn1c(CO)nc2c(N)nc3ccccc3c21` showed a melting point of 264 to 271 °C.
The same measure for `O=c1[nH]c(=O)n(C2OC(CBr)C(O)C2O)cc1C=CBr` (stereo not drawn): 201 °C; for `Cc1cccc2c1C=Cc1ccccc1C2(C)NO` (stereo not drawn): 127 to 130 °C; for `O=[N+]([O-])c1c(NCC23CCCN2CCC3)ccc2ccccc12`: 86 to 87 °C.
The compound `CNS(=O)(=O)c1cccc(S(N)(=O)=O)c1` returned a melting point of 125 to 128 °C.
The same measure for `COc1cccc(Cc2ccc(-c3cnn4c(O)ncnc34)cc2)c1`: 264 to 268 °C; for `CC(C)COc1ccc(COc2ccc(CC(=O)O)cc2Cl)cc1`: 107 to 108 °C.
For the compound `COC(=O)NCCCCC(NC(=O)OC)C(=O)OC` (stereo not drawn), the melting point lay within 187 to 189 °C.
The same measure for `COCCOc1nc(Cl)ncc1Cc1ccc(C)nc1`: 50 to 52 °C.
Next, `CCN1CCN2C1=Nc1ccc(Cl)cc1C2c1ccccc1` (stereo not drawn): 145 to 146 °C; `CCOC(=O)c1cn(CC)c2nc(OC)c([N+](=O)[O-])cc2c1=O`: 224 to 227 °C.
With `CCCCc1nc2ccn(Cc3ccc([N+](=O)[O-])cc3)c(=O)c2n1Cc1ccc([N+](=O)[O-])cc1`, the melting point was in the range of 142 to 143 °C.
Turning to `Cc1ncsc1C(O)c1ccoc1` (stereo not drawn), the melting point lay in the range of 44 to 46 °C.
The same measure for `O=C(O)Cn1c(=O)n(Cc2ccc(Cl)c(Cl)c2)c(=O)c2ccccc21`: 225 to 227 °C; for `CC(C)C(=O)CCC(C)C1CCC2C3CC=C4CC(O)CCC4(C)C3CCC12C` (stereo not drawn): 135 to 136 °C; for `CCOC(=O)CC(=O)CC(O)/C=C/c1c(-c2ccccc2)c2ccccc2c(=O)n1C` (stereo not drawn): 148 to 149 °C.
`Oc1cc(Cl)nnc1-c1ccc(F)cc1` had a melting point of 254 to 260 °C.
`Clc1c(CBr)c(CBr)cc2ccccc12` gave a melting point of 108 °C.
Compound `Oc1ccccc1-c1nc(-c2ccccc2O)n(CC(F)(F)F)n1` returned a melting point of 154 to 156 °C.
The same measure for `O=Cc1ccc2ccc(-c3ccccc3)nc2c1`: 108 °C; for `Cc1nc(-c2ccc(C#N)cc2)sc1C(=O)N[C@H](C)[C@](O)(Cn1cncn1)c1ccc(C(F)(F)F)cc1` (relative stereo): 105 to 111 °C; for `N#Cc1cc(O)cc(F)c1`: 138 to 139 °C.
